Experimental data taken from patent US20050037923A1, “Herbicidal mixture based on 7-pyrazolybenzoxazoles” (BASF Aktiengesellschaft, priority 2001, published 2005).
Structures can show the parent of a compound that is named as a salt.

Assays:
crop plants = test: Safener action, pre-emergence, damage to crop plants; type: in vivo; conditions: 21 days, application rate 100 g/ha
Text: For the pre-emergence treatment, the test plants were sown is pots 1-2 days later, i.e. prior to germination, the pots were sprayed with the finely distributed herbicidal compositions, which had been suspended in water.
(§1) The respective components A and B and/or C were formulated as 10% by weight strength emulsion concentrate and introduced to the spray liquor with the amount of solvent system used for applying the active compound. In the examples, the solvent used was water.
(§2) The evaluation for the damage caused by the chemical compositions was carried out using a scale from 0 to 100%, compared to the untreated control plants. Here, 0 means no damage and 100 means complete destruction of the plants.
As in the example above, test plants were grown, treated with the mixture according to the invention by the Pre-emergence method and, after a test period of 21 days, evaluated using a scale from 0 to 100% damage. The test plants used were crop plants.
A safener action is present if the damage to the crop plant caused by using a mixture according to the invention which comprises a safener C) is less than the damage caused when active compound A or active compounds A and B are used without safener.

BIDPI = test: Greenhouse test, post-emergence herbicidal action; type: in vivo, hairy beggarticks
Text: (§3) For the post-emergence treatment, the test plants were first grown to a height of 3 to 20 cm, depending on the plant habit, and only then treated. Here, the herbicidal compositions were suspended or emulsified in water as distribution medium and sprayed using finely distributing nozzles.
as §1
(§4) The test period extended over 21 days. During this time, the plants were tended, and their response to the treatments with active compound was evaluated.
as §2
(§5) In the examples below, the value E which is to be expected if the activity of the individual active compounds is just additive was calculated using the method of S. R. Colby (1967) “Calculating synergistic and antagonistic responses of herbicide combinations”, Weeds 15, p. 22 ff. E=X+Y—(X·Y/100) where • X=effect in percent using active compound A at an application rate a; • Y=effect in percent using active compound B at an application rate b; • E=expected effect (in %) of A+B at application rates a+b.
(§6) The plants used in the greenhouse experiments were of the following species: […]

AVEFA = test: Greenhouse test, post-emergence herbicidal action; type: in vivo, wild oat
Text: as §3, §1, §4, §2, §5, §6

POLPE = test: Greenhouse test, post-emergence herbicidal action; type: in vivo, ladysthumb; conditions: 21 days
Text: as §3, §1, §4, §2, §5, §6

ABUTH = test: Greenhouse test, post-emergence herbicidal action; type: in vivo, velvet leaf; conditions: 21 days
Text: as §3, §1, §4, §2, §5, §6

VERSS = test: Greenhouse test, post-emergence herbicidal action; type: in vivo, speadwell; conditions: application rate 250 g/ha
Text: as §3, §1, §4, §2, §5, §6

MATIN = test: Greenhouse test, post-emergence herbicidal action; type: in vivo, false chamomille; conditions: application rate 250 g/ha
Text: as §3, §1, §4, §2, §5, §6

POAAN = test: Greenhouse test, post-emergence herbicidal action; type: in vivo, annual bluegrass; conditions: application rate 250 g/ha
Text: as §3, §1, §4, §2, §5, §6

BRAPL = test: Greenhouse test, post-emergence herbicidal action; type: in vivo, alexandergrass
Text: as §3, §1, §4, §2, §5, §6

SETVI = test: Greenhouse test, post-emergence herbicidal action; type: in vivo, green foxtail; conditions: application rate 15.63 g/ha
Text: as §3, §1, §4, §2, §5, §6

ECHCG = test: Greenhouse test, post-emergence herbicidal action; type: in vivo, barnyardgrass; conditions: 21 days
Text: as §3, §1, §4, §2, §5, §6

GALAP = test: Greenhouse test, post-emergence herbicidal action; type: in vivo, catchweed bedstraw; conditions: 21 days
Text: as §3, §1, §4, §2, §5, §6

[1] = application rate 3.91 g/ha (Example 26)
[2] = application rate 31.25 g/ha, 21 days

C=CCN(CC=C)C(=O)C(Cl)Cl [dichlormid]
Damage to the crop plant corn (ZEAMX), cultivar Magister (crop plants): 13%
Damage to the crop plant corn (ZEAMX), cultivar P3751 (crop plants): 0%

CC(C)c1nc2c(Cl)cc(Cl)c(-c3nn(C)c(OC(F)F)c3Cl)c2o1 [I.18]
Herbicidal action against BIDPI, Found (BIDPI; application rate 1.95 g/ha (Example 26)): 60%
Herbicidal action against BIDPI, Found (BIDPI; application rate 1.95 g/ha (Example 27)): 60%
Herbicidal action against BIDPI, Found (BIDPI; [1]): 60%
Herbicidal action against BIDPI, Found (BIDPI; application rate 3.91 g/ha (Example 27)): 60%

CC(C)c1ccc(NC(=O)N(C)C)cc1 [isoproturon]
Herbicidal action against BIDPI, Found (BIDPI; application rate 62.5 g/ha): 30%
Herbicidal action against BIDPI, Found (BIDPI; application rate 125 g/ha): 60%

CC(C)N.O=C(O)CNCP(=O)(O)O [glyphosate isopropylamine salt]
Herbicidal action against AVEFA, Found (AVEFA; application rate 250 g/ha (Example 15)): 40%
Herbicidal action against AVEFA, Found (AVEFA; application rate 250 g/ha (Example 16)): 40%

CC(C)N1C(=O)c2ccccc2NS1(=O)=O [bentazone sodium salt, reference compound]
Herbicidal action against POLPE, Found (POLPE; application rate 125 g/ha): 15%
Herbicidal action against POLPE, Found (POLPE; application rate 250 g/ha): 25%
Herbicidal action against ABUTH, Found (ABUTH; application rate 125 g/ha): 0%
Herbicidal action against ABUTH, Found (ABUTH; application rate 250 g/ha): 20%

CCOC(=O)c1cnn(C)c1S(=O)(=O)NC(=O)Nc1nc(OC)cc(OC)n1 [pyrazosulfuron-ethyl, reference compound]
Herbicidal action against POLPE, Found (POLPE; application rate 15.63 g/ha): 40%
Herbicidal action against POLPE, Found (POLPE; application rate 31.25 g/ha): 55%
Herbicidal action against AVEFA, Found (AVEFA; application rate 15.63 g/ha, 21 days): 0%
Herbicidal action against AVEFA, Found (AVEFA; [2]): 10%

CC(C)N(C(=O)COc1nnc(C(F)(F)F)s1)c1ccc(F)cc1 [flufenacet]
Herbicidal action against VERSS, Found (VERSS): 0%
Herbicidal action against MATIN, Found (MATIN): 10%
Herbicidal action against POAAN, Found (POAAN): 0%

CP(=O)(O)CCC(N)C(=O)O (stereo not drawn) [glufosinate ammonium salt]
Herbicidal action against BRAPL, Found (BRAPL; application rate 125 g/ha (Example 17)): 45%
Herbicidal action against BRAPL, Found (BRAPL; application rate 125 g/ha (Example 18)): 45%

O=C(Nc1ccc(F)cc1)c1cccc(Oc2cccc(C(F)(F)F)c2)n1 [picolinafen]
Herbicidal action against SETVI, Found (SETVI): 40%

CCNc1nc(Cl)nc(NC(C)C)n1 [atrazine, reference compound]
Herbicidal action against ECHCG, Found (ECHCG; application rate 62.5 g/ha): 45%
Herbicidal action against ECHCG, Found (ECHCG; application rate 125 g/ha): 65%

CNC.O=C(O)COc1ccc(Cl)cc1Cl [2,4-D dimethylamine salt]
Herbicidal action against BIDPI, Found (BIDPI; application rate 31.25 g/ha): 80%
Herbicidal action against BIDPI, Found (BIDPI; application rate 62.5 g/ha (Example 31)): 80%
Herbicidal action against BRAPL, Found (BRAPL; application rate 31.25 g/ha): 10%
Herbicidal action against BRAPL, Found (BRAPL; application rate 62.5 g/ha): 15%

CCCC(=NOCC(C)Oc1ccc(Cl)cc1)C1=C(O)CC(C2CCCSC2)CC1=O (stereo not drawn) [profoxydim, reference compound]
Herbicidal action against GALAP, Found (GALAP; application rate 7.81 g/ha): 30%
Herbicidal action against GALAP, Found (GALAP; application rate 15.63 g/ha): 30%

COCc1cnc(C2=NC(C)(C(C)C)C(=O)N2)c(C(=O)O)c1 (stereo not drawn) [imazamox, reference compound]
Herbicidal action against BIDPI, Found (BIDPI; [2]): 20%
Herbicidal action against BIDPI, Found (BIDPI; application rate 62.5 g/ha, 21 days): 60%

COc1cc(OC)nc(NC(=O)NS(=O)(=O)c2ncccc2C(=O)N(C)C)n1 [nicosulfuron]
Herbicidal action against BIDPI, Found (BIDPI; [1]): 70%
Herbicidal action against BIDPI, Found (BIDPI; application rate 7.81 g/ha (Example 26)): 80%
